Experimental findings from patent US20240425456A1, “DEGRADER” (ASKA PHARMACEUTICAL CO., LTD., priority 2021, published 2024) are described below.

Holding throughout (format): cell-based
Assay [1] addresses T1, Tyk2 (Homo sapiens, UniProt P29597).
T1 construct: endogenous in cells; host or cells: Jurkat cells
Kind of assay: Degradation-inducing effect on JAK in Jurkat cells (chemiluminescent Western blotting), Tyk2. The conditions noted are these: 1 μmol/L, 6 hours; for JAK protein ratio of Jurkat cells after treatment of each test compound: Tyk2: corrected by GAPDH, DMSO as 100%. Here is the method:
(§1) The degradation-inducing effect of the compound of the present invention on JAK family proteins was evaluated in vitro using Jurkat cells, of which cell line was derived from human leukemic T cells.
(§2) JAK1, JAK2, JAK3, and Tyk2-positive Jurkat cells were seeded at a density of 1×10^5 cells/mL on 10 cm diameter dishes and then cultured in RPMI 1640 medium (FUJIFILM Wako Pure Chemical: catalog number: 189-02025) containing 10% FBS (Thermo Fisher Scientific: catalog number: 10437-028) at 5% CO2 and 37° C. for 3 days. Then, each of the test compounds (compounds of Examples 1 to 11 and Comparative Examples 1 and 2) was added to the dish at a final concentration of 1 μmol/L, and the cells were cultured in the presence of the test compound for 6 hours. After that, the cell culture medium was collected in a 15 mL centrifuge tube (1000 rpm (240× g), room temperature, 5 min), followed by washing with PBS (1000 rpm (240× g), room temperature, 5 min). Then, the cells in the centrifuge tube were collected in a 1.5 mL tube (3000 rpm (860× g), 4° C., 5 min), lysed using RIPA buffer (25 mmol/L Tris-HCl (pH 7.4), 25 mmol/L NaCl, 0.5 mmol/L EGTA (pH 8.0), 0.1% SDS, 1% protease inhibitor), sonicated at ice temperature (cycles of [7.5 sec sonication, 5 sec off] for 5 min) and subjected to centrifugation (15000 rpm (21600× g), 4° C., 30 min). The thus-obtained supernatant was used as the protein solution. Using the BCA protein assay kit (Thermo Fisher Scientific: catalog number: 23225), the protein concentration of the protein solution of each test compound was measured according to the kit instructions, and then adjusted to 1.4 mg/mL with RIPA buffer. The thus-adjusted protein solutions were subjected to a fully automated Western blotting device (Simple Westerns Wes: proteinSimple) to detect the protein levels (JAK1, JAK2, JAK3, and Tyk2 as the target proteins, and GAPDH (Glyceraldehyde 3-phosphate dehydrogenase) as the internal standard protein) in the protein solutions by chemiluminescent Western blotting.
(§3) Furthermore, the luminescence levels of JAK1, JAK2, JAK3, and Tyk2 detected by chemiluminescent Western blotting were quantified numerically by using an analysis software (Compass software for Simple Western (version 4.0.0)) attached to the fully automated Western blotting device. The numerical values of the quantified luminescence levels were corrected by the protein levels of the internal standard protein, i.e., GAPDH, (target protein levels/GAPDH protein levels), and compared among the test compounds with dimethyl sulfoxide (DMSO) as 100%.
In general terms: Immunoblotting shows a protein as a band on a membrane.

The target of assay [2] is T2, JAK2 (Homo sapiens, UniProt O60674).
T2 construct: endogenous in cells; host or cells: Jurkat cells
Kind of assay: Degradation-inducing effect on JAK in Jurkat cells (chemiluminescent Western blotting), JAK2. The conditions noted are these: 1 μmol/L, 6 hours, corrected by GAPDH, DMSO as 100%. As for the experimental part: as §1, §2, §3

Assay [3] has as its target T3, JAK3 (Homo sapiens, UniProt P52333).
T3 construct: endogenous in cells; host or cells: Jurkat cells
T3 sequence (P52333 1-1124): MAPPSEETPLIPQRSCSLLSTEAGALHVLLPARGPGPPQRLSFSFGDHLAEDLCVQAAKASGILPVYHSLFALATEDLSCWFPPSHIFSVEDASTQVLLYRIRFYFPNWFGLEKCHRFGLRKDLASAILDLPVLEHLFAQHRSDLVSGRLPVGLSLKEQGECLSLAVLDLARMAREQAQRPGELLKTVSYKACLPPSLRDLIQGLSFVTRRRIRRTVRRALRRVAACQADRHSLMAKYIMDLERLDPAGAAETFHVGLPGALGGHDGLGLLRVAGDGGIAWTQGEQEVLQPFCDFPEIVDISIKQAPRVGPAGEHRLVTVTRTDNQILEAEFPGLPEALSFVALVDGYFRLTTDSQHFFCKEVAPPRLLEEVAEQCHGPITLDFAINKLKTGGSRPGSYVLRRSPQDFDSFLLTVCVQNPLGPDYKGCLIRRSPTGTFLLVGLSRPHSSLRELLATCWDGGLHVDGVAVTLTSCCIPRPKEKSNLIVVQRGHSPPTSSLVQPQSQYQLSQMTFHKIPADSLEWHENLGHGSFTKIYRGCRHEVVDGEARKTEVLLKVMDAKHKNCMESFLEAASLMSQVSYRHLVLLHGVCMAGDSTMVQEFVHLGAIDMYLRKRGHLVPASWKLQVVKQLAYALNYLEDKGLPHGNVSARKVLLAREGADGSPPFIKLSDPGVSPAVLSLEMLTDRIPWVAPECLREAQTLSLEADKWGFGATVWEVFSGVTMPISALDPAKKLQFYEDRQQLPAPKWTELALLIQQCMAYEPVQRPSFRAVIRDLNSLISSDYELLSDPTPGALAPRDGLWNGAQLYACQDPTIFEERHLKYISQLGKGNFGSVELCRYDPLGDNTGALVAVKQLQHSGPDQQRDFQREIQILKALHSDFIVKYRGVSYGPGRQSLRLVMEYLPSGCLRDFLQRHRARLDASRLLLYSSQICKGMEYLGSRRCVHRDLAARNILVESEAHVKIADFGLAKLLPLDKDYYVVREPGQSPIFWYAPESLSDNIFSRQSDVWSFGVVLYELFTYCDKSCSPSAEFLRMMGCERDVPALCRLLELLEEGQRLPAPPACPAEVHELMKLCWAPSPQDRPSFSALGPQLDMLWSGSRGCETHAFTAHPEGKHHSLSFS
Put plainly: Degradation-inducing effect on JAK in Jurkat cells (chemiluminescent Western blotting), JAK3. To be noted: 1 μmol/L, 6 hours, corrected by GAPDH, DMSO as 100%, read-out: JAK protein ratio of Jurkat cells after treatment of each test compound: JAK3. Here is the method:
as §1, §2, §3

In assay [4] the target is T4, JAK1 (Homo sapiens, UniProt P23458).
T4 construct: endogenous in cells; host or cells: Jurkat cells
Put plainly: Degradation-inducing effect on JAK in Jurkat cells (chemiluminescent Western blotting), JAK1. To be noted: 1 μmol/L, 6 hours, corrected by GAPDH, DMSO as 100%. Here is the method: as §1, §2, §3

T4 sequence (P23458 whole entry): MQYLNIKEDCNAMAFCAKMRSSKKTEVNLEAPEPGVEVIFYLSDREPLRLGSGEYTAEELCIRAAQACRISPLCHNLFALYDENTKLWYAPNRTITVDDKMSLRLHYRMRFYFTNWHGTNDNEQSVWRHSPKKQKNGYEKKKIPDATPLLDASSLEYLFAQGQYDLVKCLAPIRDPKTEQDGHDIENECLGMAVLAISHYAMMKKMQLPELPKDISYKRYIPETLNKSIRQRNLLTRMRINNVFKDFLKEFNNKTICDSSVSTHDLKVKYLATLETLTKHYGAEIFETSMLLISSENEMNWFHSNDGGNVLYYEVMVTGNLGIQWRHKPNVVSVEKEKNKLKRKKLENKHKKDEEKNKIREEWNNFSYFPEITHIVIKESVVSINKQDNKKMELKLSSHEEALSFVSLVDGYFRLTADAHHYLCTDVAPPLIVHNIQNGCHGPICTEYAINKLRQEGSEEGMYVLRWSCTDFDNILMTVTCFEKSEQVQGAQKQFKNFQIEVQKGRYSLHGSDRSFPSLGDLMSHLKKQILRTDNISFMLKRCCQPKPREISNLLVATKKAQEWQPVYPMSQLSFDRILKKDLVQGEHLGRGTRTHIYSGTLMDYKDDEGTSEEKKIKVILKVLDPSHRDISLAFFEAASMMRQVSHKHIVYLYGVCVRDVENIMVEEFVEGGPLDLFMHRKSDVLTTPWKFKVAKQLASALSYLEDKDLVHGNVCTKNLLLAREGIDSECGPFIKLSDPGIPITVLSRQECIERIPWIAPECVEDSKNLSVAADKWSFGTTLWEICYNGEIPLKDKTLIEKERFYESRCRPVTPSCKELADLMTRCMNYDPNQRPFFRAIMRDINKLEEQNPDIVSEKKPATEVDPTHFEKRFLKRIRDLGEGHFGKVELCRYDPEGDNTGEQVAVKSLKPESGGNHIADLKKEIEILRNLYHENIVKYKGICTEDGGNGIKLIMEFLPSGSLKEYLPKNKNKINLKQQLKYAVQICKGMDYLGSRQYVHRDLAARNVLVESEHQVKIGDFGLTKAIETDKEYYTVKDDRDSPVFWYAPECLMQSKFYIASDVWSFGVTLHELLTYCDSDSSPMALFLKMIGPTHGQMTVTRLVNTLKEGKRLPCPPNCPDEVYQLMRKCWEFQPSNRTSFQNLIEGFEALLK
T1 sequence (P29597 whole entry): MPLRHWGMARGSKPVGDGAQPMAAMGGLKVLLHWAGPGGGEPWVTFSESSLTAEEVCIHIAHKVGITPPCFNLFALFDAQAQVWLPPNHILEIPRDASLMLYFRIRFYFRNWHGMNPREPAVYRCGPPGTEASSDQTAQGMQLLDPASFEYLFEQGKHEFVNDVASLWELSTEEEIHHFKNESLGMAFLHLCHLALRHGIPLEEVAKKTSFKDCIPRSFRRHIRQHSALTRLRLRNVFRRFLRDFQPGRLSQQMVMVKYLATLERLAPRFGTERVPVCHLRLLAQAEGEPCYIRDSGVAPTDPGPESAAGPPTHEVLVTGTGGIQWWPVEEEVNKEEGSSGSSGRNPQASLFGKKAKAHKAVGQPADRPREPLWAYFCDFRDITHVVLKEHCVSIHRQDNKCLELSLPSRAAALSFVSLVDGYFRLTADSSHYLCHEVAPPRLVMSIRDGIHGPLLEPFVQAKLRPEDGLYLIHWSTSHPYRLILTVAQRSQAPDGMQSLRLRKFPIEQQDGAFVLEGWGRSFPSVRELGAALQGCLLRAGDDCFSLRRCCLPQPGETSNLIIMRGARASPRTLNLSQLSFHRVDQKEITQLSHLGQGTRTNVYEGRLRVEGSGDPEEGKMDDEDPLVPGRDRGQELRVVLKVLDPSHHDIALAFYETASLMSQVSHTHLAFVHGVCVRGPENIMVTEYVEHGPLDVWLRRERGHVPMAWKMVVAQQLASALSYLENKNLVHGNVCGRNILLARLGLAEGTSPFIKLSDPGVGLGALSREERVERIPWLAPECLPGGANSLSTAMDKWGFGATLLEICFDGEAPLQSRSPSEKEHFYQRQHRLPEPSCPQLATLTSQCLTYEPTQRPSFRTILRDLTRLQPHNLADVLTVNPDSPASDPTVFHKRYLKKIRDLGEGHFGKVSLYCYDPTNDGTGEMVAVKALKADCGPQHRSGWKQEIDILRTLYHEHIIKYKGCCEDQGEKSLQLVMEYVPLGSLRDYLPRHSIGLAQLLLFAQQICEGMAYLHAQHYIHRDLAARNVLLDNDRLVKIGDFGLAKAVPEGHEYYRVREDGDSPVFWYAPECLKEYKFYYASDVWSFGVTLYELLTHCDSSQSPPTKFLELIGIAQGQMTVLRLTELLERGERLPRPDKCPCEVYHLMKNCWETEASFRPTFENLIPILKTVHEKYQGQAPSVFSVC
T2 sequence (O60674 whole entry): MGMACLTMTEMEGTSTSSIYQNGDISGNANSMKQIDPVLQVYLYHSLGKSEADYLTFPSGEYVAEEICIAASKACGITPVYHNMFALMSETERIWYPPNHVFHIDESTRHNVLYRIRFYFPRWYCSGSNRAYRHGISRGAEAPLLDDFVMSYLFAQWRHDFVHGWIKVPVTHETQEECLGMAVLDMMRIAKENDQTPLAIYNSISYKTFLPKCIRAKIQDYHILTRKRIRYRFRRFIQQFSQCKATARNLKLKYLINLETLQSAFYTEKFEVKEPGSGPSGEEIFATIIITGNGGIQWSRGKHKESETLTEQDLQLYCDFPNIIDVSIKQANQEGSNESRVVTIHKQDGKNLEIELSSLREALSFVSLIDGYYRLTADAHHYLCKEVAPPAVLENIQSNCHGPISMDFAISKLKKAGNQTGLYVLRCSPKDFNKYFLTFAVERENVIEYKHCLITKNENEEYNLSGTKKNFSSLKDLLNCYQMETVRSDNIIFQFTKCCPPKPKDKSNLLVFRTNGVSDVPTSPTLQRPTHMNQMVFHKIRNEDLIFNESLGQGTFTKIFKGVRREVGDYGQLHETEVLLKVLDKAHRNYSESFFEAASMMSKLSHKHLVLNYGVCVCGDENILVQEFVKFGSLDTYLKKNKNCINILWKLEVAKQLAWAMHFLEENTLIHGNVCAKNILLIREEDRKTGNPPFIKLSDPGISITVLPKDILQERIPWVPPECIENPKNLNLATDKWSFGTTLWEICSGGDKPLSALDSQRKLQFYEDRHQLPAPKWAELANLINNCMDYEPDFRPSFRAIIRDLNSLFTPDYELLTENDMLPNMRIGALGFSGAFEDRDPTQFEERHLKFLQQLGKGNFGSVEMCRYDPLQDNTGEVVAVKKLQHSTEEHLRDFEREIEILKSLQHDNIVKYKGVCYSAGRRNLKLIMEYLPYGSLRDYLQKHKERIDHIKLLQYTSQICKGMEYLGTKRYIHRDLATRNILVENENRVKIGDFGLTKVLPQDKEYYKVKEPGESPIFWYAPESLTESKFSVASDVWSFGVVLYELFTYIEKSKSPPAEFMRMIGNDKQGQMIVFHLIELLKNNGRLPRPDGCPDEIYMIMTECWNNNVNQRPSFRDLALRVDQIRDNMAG

With `CNC(=O)c1cnc(Nc2ccc(F)cn2)cc1Nc1cccc(C(=O)NCCCCCCCCCC(=O)N[C@H](C(=O)N2C[C@H](O)C[C@H]2C(=O)NCc2ccc(-c3scnc3C)cc2)C(C)(C)C)c1OC` [Comparative Example 1, 6-((5-Fluoropyridin-2-yl)amino)-4-((3-((10-(((S)-1-((2S,4R)-4-hydroxy 2-((4-(4-methylthiazol-5-yl)benzyl)carbamoyl)pyrrolidin-1-yl)-3,3-dimethyl-1-oxobutan-2-yl)amino)-10-oxodecyl)carbamoyl)-2-methoxyphenyl)amino)-N-methylnicotinamide, reference compound], in assay [1], the “protein level of Tyk2 (in words)” value is given as “not reduced” and the “JAK protein ratio of Jurkat cells after treatment of each test compound: Tyk2” value (from here on “JAK protein ratio of Jurkat cells … Tyk2”) was 78.9%. Further, the “JAK protein ratio of Jurkat cells after treatment of each test compound: JAK2” value (shortened to “JAK protein ratio of Jurkat cells … JAK2”) in assay [2] worked out at 87.6%. Besides, the JAK3 protein level relative to DMSO at 1 µM in assay [3] was 83.3%. Further, the “JAK protein ratio of Jurkat cells after treatment of each test compound: JAK1” value (“JAK protein ratio of Jurkat cells … JAK1” below) in assay [4] is on record as 92.4%.
On to `CNC(=O)c1cnc(Nc2ccc(F)cn2)cc1Nc1cccc(C(=O)OCCCCCCCCCC(=O)N[C@H](C(=O)N2C[C@H](O)C[C@H]2C(=O)NCc2ccc(-c3scnc3C)cc2)C(C)(C)C)c1OC` [Comparative Example 2, 10-(((S)-1-((2S,4R)-4-Hydroxy 2-((4-(4-methylthiazol-5-yl)benzyl)carbamoyl)pyrrolidin-1-yl)-3,3-dimethyl-1-oxobutan-2-yl)amino)-10-oxodecyl 3-((2-((5-fluoropyridin-2-yl)amino)-5-(methylcarbamoyl)pyridin-4-yl)amino)-2-methoxybenzoate, reference compound], for which, in assay [1], the “protein level of Tyk2 (in words)” value is given as “not reduced” and the “JAK protein ratio of Jurkat cells … Tyk2” value came out at 100.1%. Also, the “JAK protein ratio of Jurkat cells … JAK2” value in assay [2] came out at 101.7%. The JAK3 protein level relative to DMSO at 1 µM in assay [3] turned out to be 89.8%. Further, the “JAK protein ratio of Jurkat cells … JAK1” value in assay [4] is 108.7%.
In the case of `CNC(=O)c1cnc(Nc2ccc(C(=O)NCCCC(=O)N[C@H](C(=O)N3C[C@H](O)C[C@H]3C(=O)NCc3ccc(-c4scnc4C)cc3)C(C)(C)C)cn2)cc1Nc1cccc(C(=O)NC)c1OC` [Example 1], the “JAK protein ratio of Jurkat cells … Tyk2” value in assay [1] was 82.8%. Moreover, the “JAK protein ratio of Jurkat cells … JAK2” value in assay [2] came out at 121.3%. Also, in assay [3], the JAK3 protein level relative to DMSO at 1 µM turned out to be 114%. For the same compound, the “JAK protein ratio of Jurkat cells … JAK1” value in assay [4] is listed as 111.9%.
Regarding `CNC(=O)c1cnc(Nc2ccc(C(=O)NCCCCCC(=O)N[C@H](C(=O)N3C[C@H](O)C[C@H]3C(=O)NCc3ccc(-c4scnc4C)cc3)C(C)(C)C)cn2)cc1Nc1cccc(C(=O)NC)c1OC` [Example 2, 6-((5-((6-(((S)-1-((2S,4R)-4-Hydroxy-2-((4-(4-methylthiazol-5-yl)benzyl)carbamoyl)pyrrolidin-1-yl)-3,3-dimethyl-1-oxobutan-2-yl)amino)-6-oxohexyl)carbamoyl)pyridin-2-yl)amino)-4-((2-methoxy-3-(methylcarbamoyl)phenyl)amino)-N-methylnicotinamide], the “JAK protein ratio of Jurkat cells … Tyk2” value in assay [1] is on record as 48.8%. Also, in assay [2], the “JAK protein ratio of Jurkat cells … JAK2” value is reported as 112.6%. Besides, the JAK3 protein level relative to DMSO at 1 µM in assay [3] was 118%. The “JAK protein ratio of Jurkat cells … JAK1” value in assay [4] is on record as 139.2%.
Take `CNC(=O)c1cnc(Nc2ccc(C(=O)NCCCCCCCC(=O)N[C@H](C(=O)N3C[C@H](O)C[C@H]3C(=O)NCc3ccc(-c4scnc4C)cc3)C(C)(C)C)cn2)cc1Nc1cccc(C(=O)NC)c1OC` [Example 3, 6-((5-((8-(((S)-1-((2S,4R)-4-Hydroxy-2-((4-(4-methylthiazol-5-yl)benzyl)carbamoyl)pyrrolidin-1-yl)-3,3-dimethyl-1-oxobutan-2-yl)amino)-8-oxooctyl)carbamoyl)pyridin-2-yl)amino)-4-((2-methoxy-3-(methylcarbamoyl)phenyl)amino)-N-methylnicotinamide]: the “JAK protein ratio of Jurkat cells … Tyk2” value in assay [1] came out at 51.6%. The “JAK protein ratio of Jurkat cells … JAK2” value in assay [2] turned out to be 117.6%. In addition, the JAK3 protein level relative to DMSO at 1 µM in assay [3] is 97.5%. In addition, the “JAK protein ratio of Jurkat cells … JAK1” value in assay [4] turned out to be 118.2%.
With `CNC(=O)c1cnc(Nc2ccc(C(=O)NCCCCCCCCC(=O)N[C@H](C(=O)N3C[C@H](O)C[C@H]3C(=O)NCc3ccc(-c4scnc4C)cc3)C(C)(C)C)cn2)cc1Nc1cccc(C(=O)NC)c1OC` [Example 4, 6-((5-((9-(((S)-1-((2S,4R)-4-Hydroxy-2-((4-(4-methylthiazol-5-yl)benzyl)carbamoyl)pyrrolidin-1-yl)-3,3-dimethyl-1-oxobutan-2-yl)amino)-9-oxononyl)carbamoyl)pyridin-2-yl)amino)-4-((2-methoxy-3-(methylcarbamoyl)phenyl)amino)-N-methylnicotinamide], in assay [1], the “JAK protein ratio of Jurkat cells … Tyk2” value is 41.7%. The “JAK protein ratio of Jurkat cells … JAK2” value in assay [2] is given as 158.8%. Further, the JAK3 protein level relative to DMSO at 1 µM in assay [3] was found to be 129%. Besides, in assay [4], the “JAK protein ratio of Jurkat cells … JAK1” value was 129.1%.
On to `CNC(=O)c1cnc(Nc2ccc(C(=O)NCCCCCCCCCC(=O)N[C@H](C(=O)N3C[C@H](O)C[C@H]3C(=O)NCc3ccc(-c4scnc4C)cc3)C(C)(C)C)cn2)cc1Nc1cccc(C(=O)NC)c1OC` [Example 5, 6-((5-((10-(((S)-1-((2S,4R)-4-Hydroxy-2-((4-(4-methylthiazol-5-yl)benzyl)carbamoyl)pyrrolidin-1-yl)-3,3-dimethyl-1-oxobutan-2-yl)amino)-10-oxodecyl)carbamoyl)pyridin-2-yl)amino)-4-((2-methoxy-3-(methylcarbamoyl)phenyl)amino)-N-methylnicotinamide], for which the “JAK protein ratio of Jurkat cells … Tyk2” value in assay [1] was 23.1%. Further, the “JAK protein ratio of Jurkat cells … JAK2” value in assay [2] was 121.0%. The JAK3 protein level relative to DMSO at 1 µM in assay [3] was 112%. Also, in assay [4], the “JAK protein ratio of Jurkat cells … JAK1” value amounted to 122.8%.
